Molecules are shown by their SMILES.

In this assay the target is Poly(ADP-ribose) glycohydrolase (Homo sapiens, UniProt Q86W56). Description: Inhibition of PARG TEMU Assay. As to the method: The ability of the compounds of the Examples to inhibit PARG activity in 4. (trifluoromethyl)umbelliferone (TFMU) assay was determined as described below. PARG inhibitors were added into 384 well plate for a 10-point dose response curve at 1:3 dilutions. TFMU PARG substrate and PARG (250 pM or 2 nM) were then added to the plate to initiate enzymatic reaction. After incubation with the reagent, […] was read. IC50 values were calculated using set control points for 100% inhibition as no enzyme and 0% inhibition 250 pM or 2 nM of PARG enzyme.
Chain of Poly(ADP-ribose) glycohydrolase (Q86W56 whole entry): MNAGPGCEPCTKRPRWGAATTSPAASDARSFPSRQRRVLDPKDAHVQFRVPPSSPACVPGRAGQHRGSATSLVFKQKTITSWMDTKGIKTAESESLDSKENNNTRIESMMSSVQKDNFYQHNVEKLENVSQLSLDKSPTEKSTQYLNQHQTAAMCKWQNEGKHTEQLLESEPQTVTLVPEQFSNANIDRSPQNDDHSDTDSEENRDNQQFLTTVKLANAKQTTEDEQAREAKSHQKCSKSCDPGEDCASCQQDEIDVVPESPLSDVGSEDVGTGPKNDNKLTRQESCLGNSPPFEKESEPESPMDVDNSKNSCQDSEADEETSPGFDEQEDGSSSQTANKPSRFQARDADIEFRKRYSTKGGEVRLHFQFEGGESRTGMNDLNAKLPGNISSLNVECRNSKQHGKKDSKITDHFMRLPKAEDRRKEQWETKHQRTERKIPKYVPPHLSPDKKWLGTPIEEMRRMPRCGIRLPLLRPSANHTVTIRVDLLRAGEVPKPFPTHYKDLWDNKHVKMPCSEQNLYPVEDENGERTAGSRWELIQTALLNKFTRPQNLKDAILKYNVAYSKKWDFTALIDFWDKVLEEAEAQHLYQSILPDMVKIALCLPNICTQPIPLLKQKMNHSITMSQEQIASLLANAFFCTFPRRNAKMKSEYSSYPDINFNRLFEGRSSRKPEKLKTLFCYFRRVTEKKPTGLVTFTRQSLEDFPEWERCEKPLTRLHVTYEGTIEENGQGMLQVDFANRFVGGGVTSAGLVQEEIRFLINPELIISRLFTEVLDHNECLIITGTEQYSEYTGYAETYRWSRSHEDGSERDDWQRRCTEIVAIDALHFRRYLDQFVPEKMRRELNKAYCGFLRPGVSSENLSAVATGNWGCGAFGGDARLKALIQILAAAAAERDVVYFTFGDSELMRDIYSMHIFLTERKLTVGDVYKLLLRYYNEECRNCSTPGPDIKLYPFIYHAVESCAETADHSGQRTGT
Regarding `CC[C@@H]1C[C@]1(C)NS(=O)(=O)c1ccc2c(c1)c(=O)n(CC)c(=O)n2CC` [US20250346564, Example 13A], the IC50 was over 5 µM.

`CC1(NS(=O)(=O)c2cc(N3CCN(C(=O)N4CCCC4)CC3)c3cnn(-c4nnc(C(F)F)s4)c3c2)COC1` [US20250346564, Example 35] showed an IC50 of under 0.05 µM.

Compound `O=C(N1CCCC1)N1CCN(c2cc(S(=O)(=O)NC3(CF)COC3)cc3c2cnn3-c2nnc(C(F)F)s2)CC1` [US20250346564, Example 36] had an IC50 of under 0.05 µM.

Usually IC50 stands for the point on the concentration scale where inhibition reaches its midpoint. A low value points to greater potency in that assay.

Values taken from BindingDB's records for patent US20250346564 (ARase Therapeutics, 2025).
